In US4342690A, “ω-Heteroaroyl(propionyl or butyryl)-L-prolines” (American Cyanamid Company, priority 1981, dated 1982) one finds IC50 data, which are given here for 7 compounds.

The test addresses T1, angiotensin converting enzyme (Oryctolagus cuniculus, UniProt P12822).
T1 construct: The ACE was extracted from rabbit lung acetone powder; tissue Pel-Freez Biol. Inc; host or cells: rabbit lung (acetone powder)
T1 sequence (P12822 34-1310): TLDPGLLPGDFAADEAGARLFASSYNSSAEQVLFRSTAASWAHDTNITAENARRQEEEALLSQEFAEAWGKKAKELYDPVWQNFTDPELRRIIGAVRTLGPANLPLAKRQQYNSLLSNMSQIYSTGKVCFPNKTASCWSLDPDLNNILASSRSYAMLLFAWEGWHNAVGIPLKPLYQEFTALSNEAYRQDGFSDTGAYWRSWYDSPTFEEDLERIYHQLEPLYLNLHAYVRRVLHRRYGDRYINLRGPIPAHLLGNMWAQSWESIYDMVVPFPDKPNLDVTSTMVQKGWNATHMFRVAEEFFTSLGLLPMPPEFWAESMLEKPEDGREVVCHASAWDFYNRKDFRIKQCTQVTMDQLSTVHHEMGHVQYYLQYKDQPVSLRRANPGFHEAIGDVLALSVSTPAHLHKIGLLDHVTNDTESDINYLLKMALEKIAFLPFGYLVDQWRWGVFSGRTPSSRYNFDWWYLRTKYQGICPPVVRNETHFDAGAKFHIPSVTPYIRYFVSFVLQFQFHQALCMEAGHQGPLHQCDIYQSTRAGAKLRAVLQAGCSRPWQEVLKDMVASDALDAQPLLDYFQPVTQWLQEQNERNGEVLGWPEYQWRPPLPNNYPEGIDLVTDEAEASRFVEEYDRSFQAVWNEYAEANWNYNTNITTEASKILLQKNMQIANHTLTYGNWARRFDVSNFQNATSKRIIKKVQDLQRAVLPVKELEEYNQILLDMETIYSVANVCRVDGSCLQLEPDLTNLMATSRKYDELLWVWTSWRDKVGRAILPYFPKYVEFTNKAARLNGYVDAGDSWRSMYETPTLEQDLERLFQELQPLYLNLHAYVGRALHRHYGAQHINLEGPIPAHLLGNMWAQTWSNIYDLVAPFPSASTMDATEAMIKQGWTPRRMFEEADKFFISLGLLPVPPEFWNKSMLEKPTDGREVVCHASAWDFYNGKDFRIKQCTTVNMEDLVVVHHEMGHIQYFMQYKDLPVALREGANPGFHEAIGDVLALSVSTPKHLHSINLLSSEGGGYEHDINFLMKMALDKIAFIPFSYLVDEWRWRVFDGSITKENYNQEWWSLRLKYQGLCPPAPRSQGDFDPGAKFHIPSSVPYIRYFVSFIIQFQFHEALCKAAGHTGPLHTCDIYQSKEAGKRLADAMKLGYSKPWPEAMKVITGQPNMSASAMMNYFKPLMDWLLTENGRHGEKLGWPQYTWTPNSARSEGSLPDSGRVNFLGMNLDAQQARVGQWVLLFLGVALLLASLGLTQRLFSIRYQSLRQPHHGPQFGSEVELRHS
Description: Spectrophotometric Assay for Angiotensin Converting Enzyme Inhibitors. The format is biochemical. The note with it: substrate benzoyl-glycyl-histidyl-leucine; crude ACE extract from rabbit lung acetone powder; 30 minutes at 37° C. An excerpt: The activity of the novel compounds of this invention as hypotensive agents was established in two systems which measure their ability as angiotensin converting enzyme inhibitors; by utilizing a spectrophotometric assay of the compounds in vitro and by the measurement of the blood pressure lowering effect of the compounds in the aorta-coarcted renal hypertensive rats.
Spectrophotometric Assay for Angiotensin Converting Enzyme Inhibitors
The in vitro activity for inhibition of the angiotensin converting enzyme (ACE) was measured by the method of Cushman, D. W. and Cheung, H. S., Biochem. Pharmacol., 20, 1637-1648 (1971), using benzoyl-glycyl-histidyl-leucine as the substrate. The reaction mixture consisted of 50 μl. of potassium phosphate (500 mM., pH 10.2), […]. of sodium chloride (2500 mM.), 25 μl. of substrate (50 mM.), 30 to 50 μl. of the crude extract of ACE, 10 μl. of test compound (2.5 mM.) or vehicle and a suitable amount of distilled water to give a total volume of 250 μl. This reaction mixture was incubated for 30 minutes at 37° C. and the reaction was then terminated by the addition of 250 μl. of 1 N hydrochloric acid. The hippuric acid was then extracted with 1.5 ml. of ethyl acetate by vortex mixing for 15 seconds. After centrifugation, one ml. of th ethyl acetate layer was pipetted into a new tube and vaporated to dryness. The extracted hippuric acid was then dissolved in one ml. of water and the amount of this acid was then measured by its absorbance at 228 nm. The ACE was extracted from rabbit lung acetone powder (Pel-Freez Biol. Inc.) by blending 5 g. of the powder in 50 ml. of phosphate buffer (50 mM., pH 8.3) and then centrifuging at 40,000 g for 40 minutes. The supernatant was then kept at 5° C. and used as the enzyme source. The activity of the ACE inhibitor was calculated as the percent inhibition of ACE activity compared to the control value of that particular assay. A full dose-response inhibitory curve is then performed to determine the IC50 value which may be defined as the molar concentration of a compound that will inhibit the ACE activity by 50%.
Compound `CC(=O)SC(CC(=O)N1CCC[C@H]1C(=O)O)C(=O)c1cccs1` (stereo partly drawn) [Example 1, 1-[3-(Acetylthio)-3-(2-thenoyl)propionyl]-L-proline] came in with an IC50 of 0.256 µM.

With `CC(=O)SC(CC(=O)N1CCC[C@H]1C(=O)O)C(=O)c1ccc(Br)s1` (stereo partly drawn) [Example 2, 1-[3-(Acetylthio)-3-(5-bromo-2-thenoyl)propionyl]-L-proline], the IC50 was 0.109 µM. This IC50 is about 2.3-fold lower than that of the compound before. As to `CC(=O)SC(CC(=O)N1CCC[C@H]1C(=O)O)C(=O)c1ccc(Cl)s1` (stereo partly drawn) [Example 3, 1-[3-(Acetylthio)-3-(5-chloro-2-thenoyl)propionyl]-L-proline], the IC50 stood at 0.108 µM. As for `CC(=O)SC(CC(=O)N1CCC[C@H]1C(=O)O)C(=O)c1csc2ccccc12` (stereo partly drawn) [Example 4, 1-[3-(Acetylthio)-3-(benzo[b]thien-3-ylcarbonyl)propionyl]-L-proline], the figure is 0.139 µM; as for `CC(=O)SC(C(=O)c1cc2ccccc2s1)C(C)C(=O)N1CCC[C@H]1C(=O)O` (stereo partly drawn) [Example 35, 1-[3-Acetylthio-3-(benzo[b]thien-2-ylcarbonyl)-2-methylpropionyl]-L-proline], 21 µM; as for `CC(=O)SC(CC(=O)N1CCC[C@H]1C(=O)O)C(=O)c1ccco1` (stereo partly drawn) [Example 36, 1-[3-Acetylthio-3-(2-furoyl)propionyl]-L-proline], 0.675 µM. As for `CC(=O)SC(CC(=O)N1CCC[C@H]1C(=O)O)C(=O)c1cc2ccccc2o1` (stereo partly drawn) [Example 37, 1-[3-Acetylthio-3-(2-benzofuranylcarbonyl)propionyl]-L-proline], the IC50 was found to be 0.074 µM.
